Experimental data taken from patent US20200093929A1, “PHARMACEUTICAL COMPOSITION FOR THE PREVENTION AND TREATMENT OF MEMORY AND COGNITIVE DEFICITS RELATED TO AGEING” (IGEA PHARMA N.V., priority 2017, published 2020).
Marks after values point to notes of the source that are not given here.

Key:
[1] = Cell viability by MTT reduction test in N2a cells, with and without Aβ1-42 prefibrillar aggregates; type: cell-based, mouse; details: mouse, N2a (ECACC) neuroblastoma cells; read-out: Cell viability (MTT test), % respect to controls
Protocol: (§1) N2a (ECACC) mouse neuroblastoma cells, plated in the presence of MEM integrated with non-essential amino acids, 10% FCS, antibiotics and glutamine, were exposed for 48 h to micromolar levels of oleuropein aglycone and/or glutathione thioesters (GST), in the presence and in the absence of prefibrillar aggregates of Aβ1-42 peptides (Lambert M, et al. J. Neurochem. 2001, 79:595-605). […] In the control plates (CTRL) the cells were incubated under the same conditions in the presence of the culture medium alone. The following were then evaluated: • the state of cell viability through the MTT reduction test (Pensalfini A et al., Free
(§2) Rad Biol Med 2008, 44: 1624-1636). • the level of mTOR substrate phosphorylation of kinase p70 S6 (mTOR P) by western blot analysis and subsequent densitometry (Grossi C, et al., PLoS ONE 2013, 8: e71702) • the level of intracellular antioxidant capacity (ACi) through hydrosolublescavenger doses in the cellular lysates in chemiluminescence, using • the Pholasin photoprotein (ABEL Antioxidant Test Kit, Knight Scientific Ltd., UK) as reported in Cecchi C., et al. Neurobiol. Aging 28: 863-876, 2007.
(§3) ACi values were correct for the % of viable cells. AP=toxic prefibrillar aggregates.

[2] = test system: N2a (ECACC) mouse neuroblastoma cells; test: as above; type: cell-based; details: for Comparison of the results among glycated oleuropein, oleuropein aglycone and hydroxytyrosol: Example 1 cell experiments; for Comparison of the results among the glutathione thioesters used (cell viability, mTOR P, ACi): micromolar levels, with and without Aβ1-42 aggregates
Protocol: as §1, §2, §3

mTOR = mTOR substrate phosphorylation of kinase p70 S6 (mTOR P), western blot and densitometry, N2a cells; type: cell-based, mouse; details: 48 h
Protocol: as §1, §2, §3

[3] = test system: N2a (ECACC) mouse neuroblastoma cells; test: Intracellular antioxidant capacity (ACi) in cell lysates, Pholasin chemiluminescence, N2a cells; type: cell-based; details: 48 h, corrected for % viable cells, CTRL 2.60
Protocol: as §1, §2, §3

[4] = in the presence of Aβ42 AP 3 μM (OLE 2 µM; GST 3 µM)
[5] = substance(s) alone, no Aβ42 AP added (Aβ42 AP 3 μM; OLE 2 µM; GST 3 µM)

SMILES | Comparison of the results among glycated oleuropein, oleuropein aglycone and hydroxytyrosol [2] | Comparison of the results among the glutathione thioesters used (cell viability, mTOR P, ACi) ([2]; N2a cells, 48 h) | further results
C/C=C1/C(O)OC=C(C(=O)OC)[C@H]1CC(=O)OCCc1ccc(O)c(O)c1 (mixture of isomers) [OLE, oleuropein aglycone] | No significant differences | – | viability at 48 h, 2 µM [1]: 98%; Cell viability (MTT test), % respect to controls ([2]; N2a cells, 48 h, in the presence of Aβ42 AP 3 μM (OLE 2 µM; GST 3 µM)): 65* %; mTOR P, % respect to controls (mTOR; [4]): 69%; mTOR P, % respect to controls (mTOR; [5]): 12* %; ACi, mmol/L GSH Equivalent [3, 4]: 1.55* mmol/L GSH Equivalent; ACi, mmol/L GSH Equivalent [3, 5]: 2.68 mmol/L GSH Equivalent
CC/C=C\C/C=C\C/C=C\C/C=C\C/C=C\C/C=C\CCC(=O)SC[C@H](NC(=O)CC[C@H](N)C(=O)O)C(=O)NCC(=O)O [S-docohexaenoyl-glutathione] | – | equivalent results | –
CC/C=C\C/C=C\C/C=C\CCCCCCCC(=O)SCC(NC(=O)CCC(N)C(=O)O)C(=O)NCC(=O)O (stereo not drawn) [S-linolenoyl-glutathione] | – | equivalent results | –
CCCCC/C=C\C/C=C\CCCCCCCCSC[C@H](NC(=O)CC[C@H](N)C(=O)O)C(=O)NCC(=O)O [S-linoleyl-glutathione] | – | equivalent results | –
CCCCCCCC/C=C\CCCCCCCCSC[C@H](NC(=O)CC[C@H](N)C(=O)O)C(=O)NCC(=O)O [S-oleyl-glutathione] | – | equivalent results | –
C/C=C1/[C@H](O[C@@H]2O[C@H](CO)[C@@H](O)[C@H](O)[C@H]2O)OC=C(C(=O)OC)[C@H]1CC(=O)OCCc1ccc(O)c(O)c1 [glycated oleuropein, oleuropein] | No significant differences | – | –
